From US7091026B2, “Artificial endonuclease” (University of Iowa Research Foundation, priority 2001, dated 2006)
Where no end group is shown, it is not given here.

Legend:
[1] = test system: supercoiled pBR322 plasmid DNA; experiment: DNA gel shift assay (agarose gel electrophoresis); assay type: binding; settings: 5–25 μM ligand, in words
Method: DNA Gel Shift Assays. The affinity of EuP3, EuP2, and each free peptide for supercoiled plasmid DNA was examined by agarose gel electrophoresis. Plasmid (pBR322, New England Biolabs, Inc.) was incubated for 15 minutes at room temperature with increasing concentrations of each ligand (5–25 μM), prior to the addition of loading dye. Each lane contained 1 μg plasmid (50 μM base pairs) in 10 mM Tris buffer at pH 8.0.

[2] = target: P4a (34-residue synthetic chimeric peptide: alpha2 and alpha3 of engrailed, minus the last turn of alpha2 and the beta-turn, with calmodulin loop I); experiment: measured dissociation constant, method not stated; self-association of the Eu-bound peptide

`[Cl][Eu]([Cl])[Cl]` [EuCl3] was tested, and the “gel shift / affinity for supercoiled plasmid DNA” value [1] was “not” and the “gel shift / affinity for supercoiled plasmid DNA” value ([1]; listed as free metal) was “not seen”.

In the case of TERRRFDKDGNGYISAAELRHVKIWFQNKRAKIK (also: also used as Eu(III)-bound form (EuP4a)), the Kdim (dimerization constant) [2] is reported as > 300 µM.
